Assay results from PubChem BioAssay AID1963959 (Molecular Pharmacology Branch, DTP, NCI, 2024).
Where “and” joins values, the source holds several entries; their conditions need not be identical. Identical values can stand only once.

Test system: T-47D spheroids with HUVEC/MSC, viability
Experiment: Anticancer human tumor T-47D cell line growth inhibition [PI3K];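 note: spheroids exposed to agents for seven days before reading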;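 for viability, T/C: percent of DMSO vehicle control luminescence so 100% = untreated growth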
Details: for viability, T/C: stronger effect = lower value
In short: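 Targeted small molecules plus PI3K inhibitors, half-log dose series from Cmax (default top 10 microM), were applied to heterotypic spheroids of cancer cells with HUVEC and MSCs. Viability indicated growth inhibition.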

## CC(Nc1ccc2c(c1)OCCn1cc(N3C(=O)OCC3C(F)F)nc1-2)C(N)=O (stereo not drawn)
Compound 0.00316 µM
  viability, T/C: 95.1% [middle of 8 runs]
Compound 0.0316 µM
  viability, T/C: 93.7% [middle of 8 runs]
Compound 0.316 µM
  viability, T/C: 79.9% [middle of 8 runs]
Compound 1 µM
  viability, T/C: 57.9% [middle of 8 runs]
Compound alone, run of 04/24/2023
  IC50: > 1 µM

## CCCS(=O)(=O)Nc1ccc(F)c(C(=O)c2c[nH]c3ncc(-c4ccc(Cl)cc4)cc23)c1F
Compound 0.0316 µM
  viability, T/C: 91% and 97.4% (2×) and 99.9%
Compound 0.1 µM
  viability, T/C: 94.3% [middle of 4 runs]
Compound 0.316 µM
  viability, T/C: 106% [middle of 4 runs]
Compound 1 µM
  viability, T/C: 107% [middle of 4 runs]
Compound 10 µM
  viability, T/C: 47.2% [middle of 4 runs]
Curve of compound
  IC50: 9.4 µM [middle of 4 runs]

## C=CC(=O)N1CCN(c2nc(=O)n(-c3c(C)ccnc3C(C)C)c3nc(-c4c(O)cccc4F)c(F)cc23)C(C)C1 (stereo not drawn) + CC(Nc1ncnc2nc[nH]c12)c1cc2cccc(Cl)c2c(=O)n1-c1ccccc1
Curve of first compound, second compound 0.0316 µM
  IC50: > 10 µM
Curve of first compound, second compound 0.1 µM
  IC50: > 10 µM
Curve of first compound, second compound 0.316 µM
  IC50: > 10 µM
Curve of first compound, second compound 1 µM
  IC50: > 10 µM
Curve of first compound, second compound 3.16 µM
  IC50: > 10 µM
Curve of first compound, second compound 10 µM
  IC50: > 10 µM
Second compound 0.0316 µM, first compound 0.0316 µM
  viability, T/C: 98.2%
Second compound 0.0316 µM, first compound 0.1 µM
  viability, T/C: 80.2%
Second compound 0.0316 µM, first compound 0.316 µM
  viability, T/C: 93.8%
Second compound 0.0316 µM, first compound 1 µM
  viability, T/C: 92.8%
Second compound 0.0316 µM, first compound 3.16 µM
  viability, T/C: 105%
Second compound 0.0316 µM, first compound 10 µM
  viability, T/C: 112%
Second compound 0.1 µM, first compound 0.0316 µM
  viability, T/C: 121%
Second compound 0.1 µM, first compound 0.1 µM
  viability, T/C: 73%
Second compound 0.1 µM, first compound 0.316 µM
  viability, T/C: 90.1%
Second compound 0.1 µM, first compound 1 µM
  viability, T/C: 86.4%
Second compound 0.1 µM, first compound 3.16 µM
  viability, T/C: 115%
Second compound 0.1 µM, first compound 10 µM
  viability, T/C: 139%
Second compound 0.316 µM, first compound 0.0316 µM
  viability, T/C: 107%
Second compound 0.316 µM, first compound 0.1 µM
  viability, T/C: 110%
Second compound 0.316 µM, first compound 0.316 µM
  viability, T/C: 93.6%
Second compound 0.316 µM, first compound 1 µM
  viability, T/C: 85.3%
Second compound 0.316 µM, first compound 3.16 µM
  viability, T/C: 89.6%
Second compound 0.316 µM, first compound 10 µM
  viability, T/C: 117%
Second compound 1 µM, first compound 0.0316 µM
  viability, T/C: 74.3%
Second compound 1 µM, first compound 0.1 µM
  viability, T/C: 89.2%
Second compound 1 µM, first compound 0.316 µM
  viability, T/C: 88.5%
Second compound 1 µM, first compound 1 µM
  viability, T/C: 98.4%
Second compound 1 µM, first compound 3.16 µM
  viability, T/C: 118%
Second compound 1 µM, first compound 10 µM
  viability, T/C: 115%
Second compound 3.16 µM, first compound 0.0316 µM
  viability, T/C: 75.5%
Second compound 3.16 µM, first compound 0.1 µM
  viability, T/C: 92.3%
Second compound 3.16 µM, first compound 0.316 µM
  viability, T/C: 94%
Second compound 3.16 µM, first compound 1 µM
  viability, T/C: 94.1%
Second compound 3.16 µM, first compound 3.16 µM
  viability, T/C: 107%
Second compound 3.16 µM, first compound 10 µM
  viability, T/C: 122%
Second compound 10 µM, first compound 0.0316 µM
  viability, T/C: 100%
Second compound 10 µM, first compound 0.1 µM
  viability, T/C: 92.5%
Second compound 10 µM, first compound 0.316 µM
  viability, T/C: 94%
Second compound 10 µM, first compound 1 µM
  viability, T/C: 112%
Second compound 10 µM, first compound 3.16 µM
  viability, T/C: 106%
Second compound 10 µM, first compound 10 µM
  viability, T/C: 113%
